Measured values published in PMC5218480 (PLoS ONE, 2017).

System: MV-4-11 cells
Test: Gene expression microarray analysis (Affymetrix PrimeView) and GSEA
Assay type: cell-based, human
Parameters: RFU PODN (11730768_x_at) / Fold change /veh PODN (11730768_x_at) / RFU LINC00158 (11744669_a_at) / Fold change /veh LINC00158 (11744669_a_at) / RFU DUSP10 (11751237_a_at) / Fold change /veh DUSP10 (11751237_a_at) / RFU ID3 (11757404_x_at) / Fold change /veh ID3 (11757404_x_at) / RFU PLEKHG5 (11737974_s_at) / Fold change /veh PLEKHG5 (11737974_s_at) / RFU LRRC4B (11730491_at) / Fold change /veh LRRC4B (11730491_at) / RFU GIMAP4 (11747438_a_at) / Fold change /veh GIMAP4 (11747438_a_at) / RFU KRT8 (11758183_x_at) / Fold change /veh KRT8 (11758183_x_at) / RFU CNN1 (11734310_a_at) / Fold change /veh CNN1 (11734310_a_at) / RFU VPS37D (11726825_at) / Fold change /veh VPS37D (11726825_at) / RFU C10orf10 (11716522_x_at) / Fold change /veh C10orf10 (11716522_x_at) / RFU KIR2DL2 /// KIR2DL4 /// KIR2DL5A /// KIR2DL5B /// KIR2DS1 /// KIR2DS2 /// KIR2DS3 /// KIR2DS4 /// KIR3DL3 /// KIR3DL3 /// KIR3DS1 (11738374_at) / Fold change /veh KIR2DL2 /// KIR2DL4 /// KIR2DL5A /// KIR2DL5B /// KIR2DS1 /// KIR2DS2 /// KIR2DS3 /// KIR2DS4 /// KIR3DL3 /// KIR3DL3 /// KIR3DS1 (11738374_at) / RFU C1QL1 (11718748_at) / Fold change /veh C1QL1 (11718748_at) / RFU TMPRSS4 (11747572_a_at) / Fold change /veh TMPRSS4 (11747572_a_at) / RFU HAMP (11756126_x_at) / Fold change /veh HAMP (11756126_x_at) / RFU RNFT2 (11725882_a_at) / Fold change /veh RNFT2 (11725882_a_at) / RFU NR4A2 (11747474_a_at) / Fold change /veh NR4A2 (11747474_a_at) / RFU ABCC12 (11746883_a_at) / Fold change /veh ABCC12 (11746883_a_at) / RFU TMEM136 (11760407_x_at) / Fold change /veh TMEM136 (11760407_x_at) / RFU CLDN22 /// WWC2 (11732394_at) / Fold change /veh CLDN22 /// WWC2 (11732394_at) / RFU HLA-DPB1 (11760878_x_at) / Fold change /veh HLA-DPB1 (11760878_x_at) / RFU SPINT1 (11716480_a_at) / Fold change /veh SPINT1 (11716480_a_at) / RFU GAP43 (11754022_s_at) / Fold change /veh GAP43 (11754022_s_at) / RFU A4GNT (11735810_at) / Fold change /veh A4GNT (11735810_at) / RFU PRB3 (11715151_x_at) / Fold change /veh PRB3 (11715151_x_at) / RFU TUBB4B (11761932_at) / Fold change /veh TUBB4B (11761932_at) / RFU CAPN14 (11732068_a_at) / Fold change /veh CAPN14 (11732068_a_at) / RFU TMCC2 (11721928_a_at) / Fold change /veh TMCC2 (11721928_a_at) / RFU IRGQ (11745062_a_at) / Fold change /veh IRGQ (11745062_a_at) / RFU FAM174B (11720279_a_at) / Fold change /veh FAM174B (11720279_a_at) / RFU TMPRSS4 (11748680_a_at) / Fold change /veh TMPRSS4 (11748680_a_at) / RFU FAM212B (11763350_a_at) / Fold change /veh FAM212B (11763350_a_at) / RFU PLEKHG5 (11743358_a_at) / Fold change /veh PLEKHG5 (11743358_a_at) / RFU ZSCAN30 (11745921_a_at) / Fold change /veh ZSCAN30 (11745921_a_at) / RFU CMKLR1 (11741424_a_at) / Fold change /veh CMKLR1 (11741424_a_at) / RFU LOC101060620 /// MAPK8IP1 (11723275_at) / Fold change /veh LOC101060620 /// MAPK8IP1 (11723275_at) / RFU SPTSSB (11747773_x_at) / Fold change /veh SPTSSB (11747773_x_at) / RFU PRSS12 (11739890_at) / Fold change /veh PRSS12 (11739890_at) / RFU BIN1 (11741810_x_at) / Fold change /veh BIN1 (11741810_x_at) / RFU WNT11 (11732464_a_at) / Fold change /veh WNT11 (11732464_a_at) / RFU C10orf10 (11716521_a_at) / Fold change /veh C10orf10 (11716521_a_at) / RFU C5orf56 (11738089_at) / Fold change /veh C5orf56 (11738089_at) / RFU CYB561 (11721691_x_at) / Fold change /veh CYB561 (11721691_x_at) / RFU ANKRD19P (11752326_a_at) / Fold change /veh ANKRD19P (11752326_a_at) / RFU OR2T12 /// OR2T33 /// OR2T8 (11738714_s_at) / Fold change /veh OR2T12 /// OR2T33 /// OR2T8 (11738714_s_at) / RFU VCAN (11748164_a_at) / Fold change /veh VCAN (11748164_a_at) / RFU JSRP1 (11732532_at) / Fold change /veh JSRP1 (11732532_at) / RFU KRTAP10-11 (11738290_x_at) / Fold change /veh KRTAP10-11 (11738290_x_at) / RFU MYO3A (11730013_a_at) / Fold change /veh MYO3A (11730013_a_at) / RFU EBF3 (11725865_a_at) / Fold change /veh EBF3 (11725865_a_at) / RFU CAMK2N1 (11719241_x_at) / Fold change /veh CAMK2N1 (11719241_x_at) / RFU C5orf56 (11738088_a_at) / Fold change /veh C5orf56 (11738088_a_at) / RFU OLFML3 (11715873_a_at) / Fold change /veh OLFML3 (11715873_a_at) / RFU LOC100653217 /// NTM (11731650_a_at) / Fold change /veh LOC100653217 /// NTM (11731650_a_at) / RFU MAPK11 (11762145_a_at) / Fold change /veh MAPK11 (11762145_a_at) / RFU FIZ1 (11724087_x_at) / Fold change /veh FIZ1 (11724087_x_at) / RFU OASL (11726364_x_at) / Fold change /veh OASL (11726364_x_at) / RFU SOX15 (11748057_x_at) / Fold change /veh SOX15 (11748057_x_at) / RFU CD79A (11719716_a_at) / Fold change /veh CD79A (11719716_a_at) / RFU HIST1H1D (11736915_at) / Fold change /veh HIST1H1D (11736915_at) / RFU CASKIN2 (11723855_a_at) / Fold change /veh CASKIN2 (11723855_a_at) / RFU LOC730098 (11760151_x_at) / Fold change /veh LOC730098 (11760151_x_at) / RFU OR4N2 (11742367_at) / Fold change /veh OR4N2 (11742367_at) / RFU PRRT2 (11749266_a_at) / Fold change /veh PRRT2 (11749266_a_at) / RFU SNX32 (11753110_a_at) / Fold change /veh SNX32 (11753110_a_at) / RFU CDHR5 (11726645_a_at) / Fold change /veh CDHR5 (11726645_a_at) / RFU RCAN1 (11760418_a_at) / Fold change /veh RCAN1 (11760418_a_at) / RFU FAM167A (11723789_a_at) / Fold change /veh FAM167A (11723789_a_at) / RFU FAM26E (11764081_at) / Fold change /veh FAM26E (11764081_at) / RFU ISYNA1 (11749810_s_at) / Fold change /veh ISYNA1 (11749810_s_at) / RFU ACY1 (11761880_at) / Fold change /veh ACY1 (11761880_at) / RFU 11764098_at / Fold change /veh 11764098_at / RFU SAMD14 (11745864_x_at) / Fold change /veh SAMD14 (11745864_x_at) / RFU NPB (11741838_a_at) / Fold change /veh NPB (11741838_a_at) / RFU TMPRSS6 (11731388_a_at) / Fold change /veh TMPRSS6 (11731388_a_at) / RFU KRTAP10-2 (11738614_at) / Fold change /veh KRTAP10-2 (11738614_at) / RFU ARHGAP8 /// PRR5-ARHGAP8 (11727945_x_at) / Fold change /veh ARHGAP8 /// PRR5-ARHGAP8 (11727945_x_at) / RFU KRTAP5-7 /// NADSYN1 (11734609_at) / Fold change /veh KRTAP5-7 /// NADSYN1 (11734609_at) / RFU RASL12 (11751679_a_at) / Fold change /veh RASL12 (11751679_a_at) / RFU CDKN2B (11736163_a_at) / Fold change /veh CDKN2B (11736163_a_at) / RFU PRF1 (11729649_at) / Fold change /veh PRF1 (11729649_at) / RFU, ZNF638 /// ZNF638-IT1 / Fold change vs veh, ZNF638 /// ZNF638-IT1 / RFU, PANK3 / Fold change vs veh, PANK3 / RFU, SH3YL1 / Fold change vs veh, SH3YL1 / RFU, ZEB2 / Fold change vs veh, ZEB2 / RFU, NRIP1 / Fold change vs veh, NRIP1 / RFU, PTTG1IP / Fold change vs veh, PTTG1IP / RFU, CAPN2 / Fold change vs veh, CAPN2 / RFU, MED14 / Fold change vs veh, MED14 / RFU, SNORA58 / Fold change vs veh, SNORA58 / RFU, C1orf63 / Fold change vs veh, C1orf63 / RFU, LRRFIP1 / Fold change vs veh, LRRFIP1 / RFU, NDUFAF7 / Fold change vs veh, NDUFAF7 / RFU, SLC12A2 / Fold change vs veh, SLC12A2 / RFU, IBTK / Fold change vs veh, IBTK / RFU, ESF1 / Fold change vs veh, ESF1 / Fold change vs veh, TMEM50B / RFU, TAOK1 / Fold change vs veh, TAOK1 / RFU, ACBD3 / Fold change vs veh, ACBD3 / RFU, TMA16 / Fold change vs veh, TMA16 / RFU, RWDD3 / Fold change vs veh, RWDD3 / RFU, BCAT1 / Fold change vs veh, BCAT1 / RFU, EDEM3 / Fold change vs veh, EDEM3 / RFU, TMEM33 / Fold change vs veh, TMEM33 / RFU, WDR75 / Fold change vs veh, WDR75 / RFU, AHCTF1 / Fold change vs veh, AHCTF1 / RFU, TFRC / Fold change vs veh, TFRC / RFU, ZDHHC17 / Fold change vs veh, ZDHHC17 / RFU, NOM1 / Fold change vs veh, NOM1 / RFU, ARL8B / Fold change vs veh, ARL8B / RFU, ZBTB11 / Fold change vs veh, ZBTB11 / RFU, TAMM41 / Fold change vs veh, TAMM41 / RFU, KIAA1704 /// LOC100996395 / Fold change vs veh, KIAA1704 /// LOC100996395 / RFU, ING1 / Fold change vs veh, ING1 / RFU, TRMT61B / Fold change vs veh, TRMT61B / RFU, FUBP3 / Fold change vs veh, FUBP3 / RFU, TP53 / Fold change vs veh, TP53 / RFU, TNKS2 / Fold change vs veh, TNKS2 / RFU, ZFP14 / Fold change vs veh, ZFP14 / RFU, ACTR2 / Fold change vs veh, ACTR2 / RFU, PPP3R1 / Fold change vs veh, PPP3R1 / RFU, PIK3R1 / Fold change vs veh, PIK3R1 / RFU, HNRNPA1 / Fold change vs veh, HNRNPA1 / RFU, RNF170 / Fold change vs veh, RNF170 / RFU, ZNF28 / Fold change vs veh, ZNF28 / RFU, RNGTT / Fold change vs veh, RNGTT / RFU, OGT / Fold change vs veh, OGT / RFU, BRD1 / Fold change vs veh, BRD1 / RFU, MARS / Fold change vs veh, MARS / RFU, ZNF655 / Fold change vs veh, ZNF655 / RFU, FAHD1 / Fold change vs veh, FAHD1 / RFU, BDP1 / Fold change vs veh, BDP1 / RFU, LRRCC1 / Fold change vs veh, LRRCC1 / RFU, ARID1A / Fold change vs veh, ARID1A / RFU, ZNF146 / Fold change vs veh, ZNF146 / RFU, ZNF330 / Fold change vs veh, ZNF330 / RFU, GPN3 / Fold change vs veh, GPN3 / RFU, C9orf123 / Fold change vs veh, C9orf123 / RFU, N4BP2L2 / Fold change vs veh, N4BP2L2 / RFU, ARFIP1 / Fold change vs veh, ARFIP1 / RFU, FAM179B / Fold change vs veh, FAM179B / RFU, BCL10 / Fold change vs veh, BCL10 / RFU, UHRF1BP1L / Fold change vs veh, UHRF1BP1L / RFU, BET1 / Fold change vs veh, BET1 / RFU, CNOT2 / Fold change vs veh, CNOT2 / RFU, ZNF268 / Fold change vs veh, ZNF268 / Fold change vs veh, ZNF507 / RFU, DGCR2 / Fold change vs veh, DGCR2 / RFU, WDSUB1 / Fold change vs veh, WDSUB1 / Fold change vs veh, HSP90B1 /// MIR3652 / RFU, ADSS / Fold change vs veh, ADSS / RFU, GK / Fold change vs veh, GK / RFU, ZNF148 / Fold change vs veh, ZNF148 / RFU, TAF9 / Fold change vs veh, TAF9 / RFU, SLC1A5 / Fold change vs veh, SLC1A5 / RFU, SLMO2 / Fold change vs veh, SLMO2 / RFU, ABCC4 / Fold change vs veh, ABCC4 / RFU, LOC101060439 /// RAP1B / Fold change vs veh, LOC101060439 /// RAP1B / RFU, RFX7 / Fold change vs veh, RFX7 / RFU, GTPBP10 / Fold change vs veh, GTPBP10 / RFU, CNEP1R1 / Fold change vs veh, CNEP1R1 / RFU, BIVM-ERCC5 /// ERCC5 / Fold change vs veh, BIVM-ERCC5 /// ERCC5 / RFU, ILF3 / Fold change vs veh, ILF3 / RFU 11762660_at / Fold change /veh 11762660_at / RFU VCAN (11757783_s_at) / Fold change /veh VCAN (11757783_s_at) / RFU DDX43 (11728927_at) / Fold change /veh DDX43 (11728927_at) / RFU KRT8 (11758188_x_at) / Fold change /veh KRT8 (11758188_x_at) / RFU NKD1 (11759106_at) / Fold change /veh NKD1 (11759106_at) / RFU SRD5A1 (11742802_a_at) / Fold change /veh SRD5A1 (11742802_a_at) / RFU TPSAB1 /// TPSB2 (11721975_s_at) / Fold change /veh TPSAB1 /// TPSB2 (11721975_s_at) / RFU GSTM3 (11746129_a_at) / Fold change /veh GSTM3 (11746129_a_at) / RFU IL23R (11737362_x_at) / Fold change /veh IL23R (11737362_x_at) / RFU TMEM51 (11727254_a_at) / Fold change /veh TMEM51 (11727254_a_at) / RFU PIWIL2 (11732686_x_at) / Fold change /veh PIWIL2 (11732686_x_at) / RFU ORM1 (11744905_x_at) / Fold change /veh ORM1 (11744905_x_at) / RFU CCDC152 (11743942_at) / Fold change /veh CCDC152 (11743942_at) / RFU ECM1 (11717891_a_at) / Fold change /veh ECM1 (11717891_a_at) / RFU IL23R (11748794_a_at) / Fold change /veh IL23R (11748794_a_at) / RFU TNFAIP8L3 (11732012_x_at) / Fold change /veh TNFAIP8L3 (11732012_x_at) / RFU MBOAT4 (11741988_at) / Fold change /veh MBOAT4 (11741988_at) / RFU 11764193_at / Fold change /veh 11764193_at / RFU TMEM53 (11763286_at) / Fold change /veh TMEM53 (11763286_at) / RFU MAGEB2 (11727129_at) / Fold change /veh MAGEB2 (11727129_at) / RFU TMEM200A (11744735_a_at) / Fold change /veh TMEM200A (11744735_a_at) / RFU CCDC152 (11751479_a_at) / Fold change /veh CCDC152 (11751479_a_at) / RFU FAM211A (11726209_a_at) / Fold change /veh FAM211A (11726209_a_at) / RFU RGS16 (11746705_a_at) / Fold change /veh RGS16 (11746705_a_at) / RFU VCAN (11755009_s_at) / Fold change /veh VCAN (11755009_s_at) / RFU RHOB (11743442_s_at) / Fold change /veh RHOB (11743442_s_at) / RFU RGS16 (11720943_a_at) / Fold change /veh RGS16 (11720943_a_at) / RFU RGS16 (11720944_at) / Fold change /veh RGS16 (11720944_at) / RFU, VPS4B / Fold change vs veh, VPS4B / RFU, CREB1 / Fold change vs veh, CREB1 / RFU, DNAJC13 / Fold change vs veh, DNAJC13 / RFU, GNAQ / Fold change vs veh, GNAQ / RFU, CDK5R1 / Fold change vs veh, CDK5R1 / RFU, ZRANB3 / Fold change vs veh, ZRANB3 / RFU, CUL4A / Fold change vs veh, CUL4A / RFU, CCNY / Fold change vs veh, CCNY / RFU, UFL1 / Fold change vs veh, UFL1 / RFU, COG3 / Fold change vs veh, COG3 / RFU, DIAPH2 / Fold change vs veh, DIAPH2 / RFU, SKA2 / Fold change vs veh, SKA2 / RFU, AFF3 / Fold change vs veh, AFF3 / RFU, LMF1 / Fold change vs veh, LMF1 / RFU, IPO11 / Fold change vs veh, IPO11 / RFU, DFFB / Fold change vs veh, DFFB / RFU, FOXP1 / Fold change vs veh, FOXP1 / RFU, CARD8 / Fold change vs veh, CARD8 / RFU, STRN3 / Fold change vs veh, STRN3 / RFU, ADK / Fold change vs veh, ADK / RFU, RASSF2 / Fold change vs veh, RASSF2 / RFU, WIPF1 / Fold change vs veh, WIPF1 / RFU, LARP1B / Fold change vs veh, LARP1B / RFU, RASA1 / Fold change vs veh, RASA1 / RFU, RB1 / Fold change vs veh, RB1 / RFU, PPFIA1 / Fold change vs veh, PPFIA1 / RFU, MAT2A / Fold change vs veh, MAT2A / RFU, CCT5 / Fold change vs veh, CCT5 / RFU, WDR92 / Fold change vs veh, WDR92 / RFU, CUX1 / Fold change vs veh, CUX1 / RFU, TTC7A / Fold change vs veh, TTC7A / RFU, TMEM135 / Fold change vs veh, TMEM135 / RFU, DEPTOR / Fold change vs veh, DEPTOR / RFU, CPM / Fold change vs veh, CPM / RFU, DNAJB6 / Fold change vs veh, DNAJB6 / RFU, CACNA2D3 / Fold change vs veh, CACNA2D3 / RFU, DTX4 / Fold change vs veh, DTX4 / RFU, TFCP2 / Fold change vs veh, TFCP2 / RFU, GMCL1 /// GMCL1P1 / Fold change vs veh, GMCL1 /// GMCL1P1 / RFU, AEBP2 / Fold change vs veh, AEBP2 / RFU, SNHG1 /// SNORD22 /// SNORD25 /// SNORD26 /// SNORD27 /// SNORD28 /// SNORD29 /// SNORD31 / Fold change vs veh, SNHG1 /// SNORD22 /// SNORD25 /// SNORD26 /// SNORD27 /// SNORD28 /// SNORD29 /// SNORD31 / Fold change (Aza/veh), C12orf56 (ProbeSet 11735607_a_at) / Fold change (ACY-1035/veh), C12orf56 (ProbeSet 11735607_a_at) / Fold change (Aza/veh), FGFR1OP (ProbeSet 11751329_s_at) / Fold change (ACY-1035/veh), FGFR1OP (ProbeSet 11751329_s_at) / Fold change (Aza/veh), VPS36 (ProbeSet 11739960_a_at) / Fold change (ACY-1035/veh), VPS36 (ProbeSet 11739960_a_at) / RFU SYPL1 (11715823_x_at) / Fold change /veh SYPL1 (11715823_x_at) / RFU IGFBP7 (11715501_s_at) / Fold change /veh IGFBP7 (11715501_s_at) / RFU REEP3 (11722064_at) / Fold change /veh REEP3 (11722064_at) / RFU IGLL1 (11728026_x_at) / Fold change /veh IGLL1 (11728026_x_at): dose or concentration left out as unconfirmed
Conditions: ProbeSet 11724763_s_at; LIST D

SMILES: Nc1ncn([C@@H]2O[C@H](CO)[C@@H](O)[C@H]2O)c(=O)n1 [azacitidine]
- RFU, DEPTOR: 80.20 RFU
